We go through 22 molecules from patent publication US20240246992A1, “MACROCYCLIC LRRK2 KINASE INHIBITORS” (LES LABORATOIRES SERVIER, priority 2021, published 2024).

Structures are written as SMILES.

In this experiment the target is human recombinant LRRK2 protein (Homo sapiens, UniProt Q5S007). In words: LRRK2 kinase activity assay (ADP-Glo, LRRKtide peptide). It counts as biochemical. To be noted: human recombinant LRRK2 wt, LRRKtide peptide and ATP, 1 h at 37° C. How it is done: The inhibition of LRRK2 kinase was assessed using human recombinant LRRK2 protein in an in vitro peptide-based kinase assay.
human recombinant LRRK2 protein, sequence (Q5S007 whole entry): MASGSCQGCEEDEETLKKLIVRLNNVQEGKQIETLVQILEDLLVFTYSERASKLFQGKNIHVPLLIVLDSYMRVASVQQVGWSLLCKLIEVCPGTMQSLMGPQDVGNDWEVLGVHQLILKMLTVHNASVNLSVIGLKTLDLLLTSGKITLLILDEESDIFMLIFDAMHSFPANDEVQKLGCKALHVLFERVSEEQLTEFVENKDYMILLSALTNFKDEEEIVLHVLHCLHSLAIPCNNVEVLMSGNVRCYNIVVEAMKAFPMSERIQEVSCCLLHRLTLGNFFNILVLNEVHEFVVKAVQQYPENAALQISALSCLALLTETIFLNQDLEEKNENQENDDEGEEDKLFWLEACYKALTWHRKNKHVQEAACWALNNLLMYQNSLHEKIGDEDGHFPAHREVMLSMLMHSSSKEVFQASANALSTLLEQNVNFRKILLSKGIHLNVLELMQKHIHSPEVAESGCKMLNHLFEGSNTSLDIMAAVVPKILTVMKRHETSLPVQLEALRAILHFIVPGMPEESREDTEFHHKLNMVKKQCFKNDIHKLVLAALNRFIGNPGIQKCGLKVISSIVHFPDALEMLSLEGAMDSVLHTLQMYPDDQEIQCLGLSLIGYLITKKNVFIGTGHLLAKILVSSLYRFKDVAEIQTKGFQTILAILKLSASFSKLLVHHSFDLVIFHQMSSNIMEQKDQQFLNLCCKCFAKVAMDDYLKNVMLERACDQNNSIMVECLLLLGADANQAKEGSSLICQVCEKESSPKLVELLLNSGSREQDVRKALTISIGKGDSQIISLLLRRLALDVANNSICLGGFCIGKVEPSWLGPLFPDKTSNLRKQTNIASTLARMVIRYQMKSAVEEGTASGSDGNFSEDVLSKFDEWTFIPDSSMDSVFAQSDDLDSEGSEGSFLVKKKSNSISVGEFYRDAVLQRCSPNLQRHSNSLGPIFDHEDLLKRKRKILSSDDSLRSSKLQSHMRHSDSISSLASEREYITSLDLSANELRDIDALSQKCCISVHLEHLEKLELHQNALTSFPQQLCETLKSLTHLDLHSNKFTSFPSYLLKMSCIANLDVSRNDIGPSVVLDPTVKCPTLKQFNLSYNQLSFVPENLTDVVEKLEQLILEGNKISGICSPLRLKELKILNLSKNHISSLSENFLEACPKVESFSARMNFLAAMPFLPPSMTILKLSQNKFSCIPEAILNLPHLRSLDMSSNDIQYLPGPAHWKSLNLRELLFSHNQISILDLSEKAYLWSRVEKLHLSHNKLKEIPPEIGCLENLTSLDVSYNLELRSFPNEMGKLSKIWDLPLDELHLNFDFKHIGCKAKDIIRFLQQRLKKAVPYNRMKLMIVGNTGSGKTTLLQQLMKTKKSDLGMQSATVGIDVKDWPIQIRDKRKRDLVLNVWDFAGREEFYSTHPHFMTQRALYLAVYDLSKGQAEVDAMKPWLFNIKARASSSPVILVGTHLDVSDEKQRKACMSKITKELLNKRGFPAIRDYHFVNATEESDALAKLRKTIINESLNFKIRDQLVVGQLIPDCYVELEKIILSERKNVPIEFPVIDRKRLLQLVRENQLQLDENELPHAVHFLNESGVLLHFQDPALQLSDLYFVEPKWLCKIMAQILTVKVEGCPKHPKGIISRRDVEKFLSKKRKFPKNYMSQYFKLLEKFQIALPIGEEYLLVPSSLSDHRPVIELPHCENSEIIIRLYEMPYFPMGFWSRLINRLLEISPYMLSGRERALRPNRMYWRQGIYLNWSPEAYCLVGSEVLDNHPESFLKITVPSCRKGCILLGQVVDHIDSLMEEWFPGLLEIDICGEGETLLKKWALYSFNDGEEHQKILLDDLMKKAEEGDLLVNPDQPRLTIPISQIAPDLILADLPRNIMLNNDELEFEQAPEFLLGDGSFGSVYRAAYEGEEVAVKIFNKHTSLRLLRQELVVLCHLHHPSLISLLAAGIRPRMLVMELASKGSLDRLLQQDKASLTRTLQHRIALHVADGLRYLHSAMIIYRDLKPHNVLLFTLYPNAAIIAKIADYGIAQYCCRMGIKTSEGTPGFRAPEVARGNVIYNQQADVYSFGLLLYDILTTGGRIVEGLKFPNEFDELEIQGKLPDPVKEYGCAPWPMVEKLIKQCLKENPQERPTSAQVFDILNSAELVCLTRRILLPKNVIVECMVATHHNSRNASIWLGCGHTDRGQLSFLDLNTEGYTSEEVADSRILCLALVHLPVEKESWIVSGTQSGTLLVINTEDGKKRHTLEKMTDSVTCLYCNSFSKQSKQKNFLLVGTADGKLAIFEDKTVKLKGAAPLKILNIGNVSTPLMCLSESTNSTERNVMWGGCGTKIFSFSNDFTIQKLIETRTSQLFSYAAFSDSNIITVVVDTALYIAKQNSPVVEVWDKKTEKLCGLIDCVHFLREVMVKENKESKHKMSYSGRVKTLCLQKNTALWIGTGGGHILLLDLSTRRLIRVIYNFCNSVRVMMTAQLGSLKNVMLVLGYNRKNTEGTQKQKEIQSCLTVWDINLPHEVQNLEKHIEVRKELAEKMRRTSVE
LRRK2 Kinase reactions were carried out in 384-well white polystyrene plates in a final volume of 6 μl using ADP-Glo™ Kinase Assay kit (Promega Corp.). Compound and substrates (LRRKtide peptide and ATP) in assay buffer were first dispensed in wells. Kinase reaction was then started by the addition of human recombinant LRRK2 protein. After 1 h-incubation at 37° C., the enzymatic reactions was stopped by the addition of 6 μl of ADP-Glo Reagent-1 and an additional 40-minutes incubation at 23° C. (residual ATP depletion). A final 30-minutes incubation after 12 μL reagent-2 addition (ADP to ATP conversion and luciferin/luciferase reaction) was performed before luminescent signal acquisition (EnVision™ multimode plate reader—PerkinElmer, Inc.). Data from 10 individual concentrations of tested compounds (N=2) were fitted (XLfit™—ID Business Solutions Ltd) to deliver IC50s (compound concentration leading to 50% inhibition of reference enzymatic activity).
The compounds are dissolved to 5 mM in DMSO. When needed, solutions are sonicated in a bath sonicator.
Table 2 provides the pIC50 values of the compounds according to the invention, obtained using the above mentioned kinase assay. Activities are represented as +++, ++ and +, having the following meanings: • «+++» means an IC50<10 nM • «++» means an IC50<100 nM • «+» means an IC50<1 μM • «−» means an IC50>1 μM
For orientation: ADP-Glo turns the ADP formed in a reaction into a luminescent signal.
What is called IC50 is the point on the concentration scale where inhibition reaches its midpoint. For `COC1CN(c2cc3nc(n2)OCCCOC[C@H](C)Oc2ccc4[nH]nc-3c4c2)C1` [Example 27, (13S)-4-(3-methoxyazetidin-1-yl)-13-methyl-7,11,14-trioxa-5,19,20,23-tetra azatetracyclo[13.5.2.1^2,6.0^18,21]tricosa-1(20),2(23),3,5,15(22),16,18(21) heptaene], the IC50 is < 0.01 µM.

Consider `C[C@@H]1CCOCC[C@@H](C)n2ncc(n2)-c2n[nH]c3ccc(cc23)O1` [Example 94, (6R,12R)-6,12-dimethyl-9,13-dioxa-4,5,18,19,22-pentaazatetracyclo[12.5.2.1^2,5.0^17,20]docosa-1(19),2(22),3,14(21),15,17(20)-hexaene], for which the IC50 is < 0.01 µM.

With `C[C@H]1CCOCC[C@H](C)n2cc(cn2)-c2n[nH]c3ccc(cc23)O1` [Example 38, (6S,12S)-6,12-dimethyl-9,13-dioxa-4,5,18,19-tetraazatetracyclo [12.5.2.1^2,5.0^17,20]docosa-1(19),2(22),3,14(21),15,17(20)-hexaene], the IC50 was < 0.01 µM.

In the case of `O=C1COc2cncc(c2)-c2n[nH]c3ccc(cc23)OCC(F)(F)CN1` [Example 202, 12,12-difluoro-7,14-dioxa-4,10,19,20-tetraazatetracyclo [13.5.2.1^2,6.0^18,21]tricosa-1(20),2,4,6(23),15,17,21-heptaen-9-one], the IC50 is < 0.01 µM.

Consider `C[C@H]1CCNC(=O)COc2cc(cc(N3CCOCC3)c2)-c2n[nH]c3ccc(cc23)O1` [Example 174, (13S)-13-methyl-4-(morpholin-4-yl)-7,14-dioxa-10,19,20-triazatetracyclo[13.5.2.1^2,6.0^18,21]tricosa-1(20),2(23),3,5,15,17,21-heptaen-9-one], for which the IC50 was < 0.01 µM.

With `FC1(F)COCCOCCn2cc(cn2)-c2n[nH]c3ccc(cc23)O1` [Example 78, 13,13-difluoro-8,11,14-trioxa-4,5,19,20-tetraazatetra cyclo[13.5.2.1^2,5.0^18,21]tricosa-1(20),2(23),3, 15(22),16,18(21)-hexaene], the IC50 is < 0.01 µM.

Regarding `C[C@@H]1CCO[C@@H](C)CCn2cc(cn2)-c2n[nH]c3ccc(cc23)O1` [Example 97, (8S,12R)-8,12-dimethyl-9,13-dioxa-4,5,18,19-tetraaza tetracyclo[12.5.2.1^2,5.0^17,20]docosa-1(19),2(22),3,14(21),15,17(20)-hexaene], the IC50 is < 0.01 µM.

`C[C@H]1CCOCCCc2cccc(c2)-c2n[nH]c3ccc(cc23)O1` [Example 43, (13S)-13-methyl-10,14-dioxa-19,20-diazatetracyclo[13.5.2.1^2,6.0^18,21]tricosa-1(20),2(23),3,5,15(22),16,18(21)-heptaene]: the IC50 was < 0.01 µM.

Take `c1nn2cc1-c1n[nH]c3cnc(cc13)OCCOCCOCC2` [Example 96, 8,11,14-trioxa-4,5,16,19,20-pentaazatetracyclo[13.5.2.1^2,5.0^18,21]tricosa-1(20),2(23),3,15(22),16,18(21)-hexaene]: the IC50 is < 0.1 µM.

Turning to `C[C@@H]1COCC[C@H](C)Oc2cncc(c2)-c2n[nH]c3ccc(cc23)O1` [Example 11, (8S,13R)-8,13-dimethyl-7,11,14-trioxa-4,19,20-triazatetracyclo[13.5.2.1^2,6.0^18,21]tricosa-1(20),2(23),3,5,15(22),16,18(21)-heptaene], the IC50 was < 0.1 µM.

Consider `C[C@H]1COc2ccc3[nH]nc(c3c2)-c2cnn(c2)[C@@H](C)COCCO1` [Example 89, (6S,12S)-6,12-dimethyl-8,11,14-trioxa-4,5,19,20-tetraazatetracyclo [13.5.2.1^2,5.0^18,21]tricosa-1(20),2(23),3,15(22),16,18(21)-hexaene], for which the IC50 is < 0.01 µM.

Consider `C[C@@H]1COCCO[C@@H](C)COc2ccc3[nH]nc(c3c2)-c2cnn1c2` [Example 87, (6R,12S)-6,12-dimethyl-8,11,14-trioxa-4,5,19,20-tetraazatetracyclo[13.5.2.1^2,5.0^18,21]tricosa-1(20),2(23),3,15(22),16,18(21)-hexaene], for which the half-inhibitory concentration (IC50) is < 0.01 µM.

`FCC1CCOc2ccc3[nH]nc(c3c2)-c2cccc(c2)OCCN1` (stereo not shown) [Example 155, 11-(fluoromethyl)-7,14-dioxa-10,19,20-triazatetracyclo [13.5.2.1^2,6.0^18,21]tricosa-1(20),2,4,6(23),15,17,21-heptaene]: the IC50 is < 0.1 µM.

Take `CC1Oc2cncc(c2)-c2n[nH]c3ccc(cc23)OCCCN(C)C1=O` (stereo not shown) [Example 160, 8,10-dimethyl-7,14-dioxa-4,10,19,20-tetraazatetracyclo [13.5.2.1^2,6.0^18,21]tricosa-1(20),2,4,6(23),15,17,21-heptaen-9-one]: the IC50 was < 0.1 µM.

In the case of `C[C@H]1CCOCCCn2cnc(c2)-c2n[nH]c3ccc(cc23)O1` [Example 57, (12S)-12-methyl-9,13-dioxa-3,5,18,19-tetraazatetracyclo [12.5.2.1^2,5.0^17,20] docosa-1(19),2(22),3,14(21),15,17(20)-hexaene], the IC50 was < 1 µM.

Turning to `CC1CNCCCOc2ccc3[nH]nc(c3c2)-c2cc(cc(N3CCOCC3)c2)O1` (single isomer, unassigned) [Example 177, (8R) or (8S)-8-methyl-4-(morpholin-4-yl)-7,14-dioxa-10,19,20-triazatetracyclo[13.5.2.1^2,6.0^18,21]tricosa-1(20),2,4,6(23),15,17,21-heptaene], the IC50 is < 0.01 µM.

With `O=C1COc2cc(C3=CCOCC3)cc(c2)-c2n[nH]c3ccc(cc23)OCCCN1` [Example 208, 4-(3,6-dihydro-2H-pyran-4-yl)-7,14-dioxa-10,19,20-triazatetracyclo[13.5.2.1^2,6.0^18,21]tricosa-1(20),2(23),3,5,15,17,21-heptaen-9-one], the concentration for half-maximal inhibition (IC50) is < 0.01 µM.

For `C[C@@H]1CCOCCOc2cccc(n2)-c2n[nH]c3ccc(cc23)O1` [Example 56, (13R)-13-methyl-7,10,14-trioxa-19,20,23-triazatetracyclo[13.5.2.1^2,6.0^18,21] tricosa-1(20),2(23),3,5,15(22),16,18(21)-heptaene], the IC50 was < 0.01 µM.

Consider `C[C@H]1COc2ccc3[nH]nc(c3c2)-c2cnn(c2)CCCOCCO1` [Example 129, (13S)-13-methyl-9,12,15-trioxa-4,5,20,21-tetraazatetracyclo[14.5.2.1^2,5.0^19,22]tetracosa-1(21),2(24),3,16(23),17,19(22)-hexaene], for which the IC50 is < 0.1 µM.

Take `FC1(F)COCCCOc2ccc3[nH]nc(c3c2)-c2cnn(c2)C1` [Example 118, 7,7-difluoro-9,13-dioxa-4,5,18,19-tetraazatetracyclo[12.5.2.1^2,5.0^17,20] docosa-1(19),2(22),3,14(21),15,17(20)-hexaene]: the IC50 was < 0.01 µM.

For `C[C@@H]1CCOCC[C@H](C)n2ncc(n2)-c2n[nH]c3ccc(cc23)O1` [Example 103, (6S,12R)-6,12-dimethyl-9,13-dioxa-4,5,18,19,22-pentaazatetracyclo[12.5.2.1^2,5.0^17,20]docosa-1(19),2(22),3,14(21),15,17(20)-hexaene], the IC50 was < 0.01 µM.

As for `CC1CCNC(=O)COc2cncc(c2)-c2n[nH]c3ccc(cc23)O1` (stereo not shown) [Example 158, 13-methyl-7,14-dioxa-4,10,19,20-tetraazatetracyclo[13.5.2.1^2,6.0^18,21]tricosa-1(20),2,4,6(23),15,17,21-heptaen-9-one], the IC50 was < 0.1 µM.
